Format in all cases: cell-based
Assay [1] deals with T1, PopeOR1 (Phthorimaea operculella, UniProt A0A8K1YT58).
T1 construct: full-length ORF, co-expressed with PopeOrco in Xenopus oocytes; with PopeOrco
T1 sequence (A0A8K1YT58 1-435): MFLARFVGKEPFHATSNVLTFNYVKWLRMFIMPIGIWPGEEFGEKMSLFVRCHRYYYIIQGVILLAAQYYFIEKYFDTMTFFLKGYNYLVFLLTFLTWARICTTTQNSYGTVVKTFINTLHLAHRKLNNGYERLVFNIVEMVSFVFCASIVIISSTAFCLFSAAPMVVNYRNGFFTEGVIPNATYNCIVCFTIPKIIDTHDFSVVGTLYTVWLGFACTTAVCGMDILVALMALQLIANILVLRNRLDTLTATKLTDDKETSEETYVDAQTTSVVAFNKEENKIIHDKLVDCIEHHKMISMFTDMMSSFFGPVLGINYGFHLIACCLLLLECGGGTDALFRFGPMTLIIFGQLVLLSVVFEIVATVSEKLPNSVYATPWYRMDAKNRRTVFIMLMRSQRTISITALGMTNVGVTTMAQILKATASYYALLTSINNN
T1 sequence (A0A8K1YT59 1-473 partner): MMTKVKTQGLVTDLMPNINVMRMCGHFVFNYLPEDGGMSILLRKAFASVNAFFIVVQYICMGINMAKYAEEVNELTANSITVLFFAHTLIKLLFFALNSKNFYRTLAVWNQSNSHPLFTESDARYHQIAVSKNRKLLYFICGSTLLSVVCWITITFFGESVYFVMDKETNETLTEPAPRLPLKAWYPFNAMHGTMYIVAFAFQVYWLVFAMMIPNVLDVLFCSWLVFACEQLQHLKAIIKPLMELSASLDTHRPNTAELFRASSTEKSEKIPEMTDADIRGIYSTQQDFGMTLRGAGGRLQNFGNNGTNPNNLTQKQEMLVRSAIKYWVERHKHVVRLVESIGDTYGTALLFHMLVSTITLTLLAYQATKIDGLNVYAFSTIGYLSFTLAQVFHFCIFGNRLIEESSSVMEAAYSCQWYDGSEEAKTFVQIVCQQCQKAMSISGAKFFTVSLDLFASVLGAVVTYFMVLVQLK
The assay is described as follows: two-electrode voltage clamp in Xenopus oocytes. Background: Two-electrode voltage clamp is typically applied to oocytes expressing channels or transporters.

The target of assay [2] is T2, PopeOR3 (Phthorimaea operculella, UniProt A0A8K1YT60).
T2 construct: full-length ORF, co-expressed with PopeOrco in Xenopus oocytes; with PopeOrco
T2 sequence (A0A8K1YT60 1-404): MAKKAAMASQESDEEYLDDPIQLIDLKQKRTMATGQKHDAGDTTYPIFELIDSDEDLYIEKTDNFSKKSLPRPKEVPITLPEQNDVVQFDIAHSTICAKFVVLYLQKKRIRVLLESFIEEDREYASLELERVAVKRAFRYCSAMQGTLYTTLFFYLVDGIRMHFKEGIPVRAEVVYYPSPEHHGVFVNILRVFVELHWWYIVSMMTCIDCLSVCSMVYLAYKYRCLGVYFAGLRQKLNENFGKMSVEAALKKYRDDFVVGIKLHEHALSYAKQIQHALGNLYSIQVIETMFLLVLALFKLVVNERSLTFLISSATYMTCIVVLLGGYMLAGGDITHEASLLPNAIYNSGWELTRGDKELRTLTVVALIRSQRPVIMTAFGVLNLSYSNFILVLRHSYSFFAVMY
T2 sequence (A0A8K1YT59 1-473 partner): T1 sequence (A0A8K1YT59 1-473 partner)
The assay can be described thus: two-electrode voltage clamp in Xenopus oocytes, weak current at […].

Assay [3] has as its target T2, PopeOR3. The assay is described as follows: two-electrode voltage clamp in Xenopus oocytes.

Structures are written as SMILES.

Take `CCCCC/C=C\C/C=C/CCCOC(C)=O` [(E, Z)-4,7–13: OAc, trans-4, cis-7-tridecadienyl acetate]: a half-maximal effect in assay [1] (EC50) was put at 73 µM. In addition, the “two-electrode voltage clamp in Xenopus oocytes, weak current at 10^-4 M” value in assay [2] was determined as 29.41 ± 6.87 nA.
Turning to `CC/C=C\C/C=C\C/C=C/CCCOC(C)=O` [(E, Z, Z)-4,7,10–13: OAc, tran-4, cis-7, cis-10-tridecatrienyl acetate], the concentration for a half-maximal effect (EC50) in assay [1] came to 39 µM; in assay [3], 89 µM.

A word on the EC50: it is the midpoint of the concentration-response curve. Low readings indicate an effect from little substance, high ones a need for much substance.

The values above are taken from PMC7868389, “Identification and Functional Characterization of Two Putative Pheromone Receptors in the Potato Tuber Moth, Phthorimaea operculella” (Frontiers in Physiology, 2021).
